In patent US6562849B1, “Amine derivative compounds” (Sankyo Company, Limited, priority 1999, dated 2003):

Test system: KK mice (age 4-5 months) with diabetes
Experiment: Blood sugar lowering effect in KK mice with diabetes
Format: in vivo
Conditions: Mus musculus, po, 72 h, powder diet containing 0.01% of the test compound for 3 days, plasma glucose vs control group, groups of 4 mice, read-out: Blood sugar decrease rate (%)
Description: [Test Example] Blood Sugar Lowering Effect
Blood samples were collected from the caudal vein of KK mice (age 4-5 months) with diabetes followed by measurement of their blood sugar levels. Next, after assigning the mice to groups (of 4 mice each) so that the mean blood sugar levels of each group were the same, mouse laboratory powder diet (F-1, Funabashi Farms), prepared so as to contain 0.01% of the test compound, was given to the mice for 3 days. The groups of mice that were given test compound were designated as the drug dose groups. It should be noted that a group that was given laboratory diet not containing the test compound was designated as the control group. Blood samples were collected from the caudal vein of the mice 3 days later and the glucose concentration of the plasma obtained by centrifugal separation was measured with a glucose analyzer (Glucoloader, A & T Corp.). The mean decrease of blood sugar rate (%) was determined according to the following equation.
Blood sugar decrease rate (%)=(mean blood sugar value of control group−mean blood sugar value […] of drug dose group)×100/(blood sugar value of control group)

Question: `Cn1c(COc2ccc(CC3SC(=O)NC3=O)cc2)nc2ccc(Oc3ccc(NC(=O)C4CCCC4)cc3)cc21` (centres unmarked) [Example 59, N-[4-[2-[4(2,4-dioxothiazolidin-5-ylmethyl)phenoxymethyl]-1-methyl-1H-benzimidazol-6-yloxy]phenyl]cyclopentanecarboxamide] was tested. Which inhibition in vivo at 0.01 % in diet did it give?
Answer: Its inhibition in vivo at 0.01 % in diet is 56.8%.

Question: `Cn1c(COc2ccc(CC3SC(=O)NC3=O)cc2)nc2ccc(Oc3ccc(NC(=O)c4cccc(Cl)c4)cc3)cc21` (centres unmarked) [Example 54, 3-Chloro-N-[4-[2-[4-(2,4-dioxothiazolidin-5-ylmethyl)phenoxymethyl]-1-methyl-1H-benzimidazol-6-yloxy]phenyl]benzamide] was tested. Which inhibition in vivo at 0.01 % in diet did it give?
Answer: Its inhibition in vivo at 0.01 % in diet is 43.4%.
